Assay results taken from paper PMC9499324, “Glycyrrhizic Acid Derivatives Bearing Amino Acid Residues in the Carbohydrate Part as Dengue Virus E Protein Inhibitors: Synthesis and Antiviral Activity” (International Journal of Molecular Sciences, 2022).

Assays:
[1] = test system: DENV2; experiment: DENV2 infectivity inhibition (anti-NS4B immunofluorescence) in Vero E6 cells; assay type: cell-based, Dengue virus type 2; conditions: Dengue virus; for inhibition at 10 µM: Vero C1008, 10 μM compound, DENV2, Vero E6 cells, 96 h, read-out: Inhibition (%) at 10 μM (reduction of NS4B-positive cells)
Excerpt: […] In CPE and infectivity reduction assays, […], and then photographed by microscope for examining the levels of DENV2-induced CPE in infected cells treated with or without GL conjugate. Meanwhile, the cells were further performed using immunofluorescence assay (IFA) with anti-DENV NS4B antibodies (GeneTex, Inc., Hsinchu, Taiwan) and anti-rabbit IgG antibodies conjugated with AF555 (ThermoFisher, Waltham, MA, USA) plus DAPI (4′,6-diamidino-2-phenylindole) nuclear staining. Finally, the DENV-2 infectivity was measured according to the ratio of DENV NS4B-positive cells to DAPI-stained cells in the well of mock-treated or treated cells, as described in [45, 59, 60].

[2] = MTT cytotoxicity assay in A549 cells; assay type: cell-based; conditions: human
Experimental: Vero E6 cells and A549 cells (5 × 10^3 cells/well) were treated with the serial dilution of GL conjugates at 0, 0.1, 10, 20, and 50 μM for examining the in vitro cytotoxicity of tested compounds. After 96-h incubation at 37 °C, the cells were incubated with MTT (3-(4,5-Dimethylthiazol-2-yl)-2,5-Diphenyltetrazolium Bromide) solution for another 4 h incubation, mixed with DMSO for 15 min after the removal of media, and then measured the absorbance at 570 nm. The viability (%) of treated cells was quantified according to the reduced ability of MTT. Finally, the concentration for reducing 50% cell viability (the 50% cytotoxic concentration, CC50) was determined by regression analysis of the concentration–response survival curve.

[3] = test system: DENV2; experiment: DENV2 yield reduction assay (TCID50) in Vero E6 cells; assay type: cell-based, Dengue virus type 2
Experimental: Ten-fold serial dilutions of the cultured media of treated/infected cells harvested in the antiviral potency assay were applied to a monolayer of Vero E6 cells in the 96-well plates. After 96-h incubation, the number of CPE in each well of the dilution was calculated, and the indicated dilution with a 50% positivity rate of CPE in the cell culture was expressed as the […] (50%) tissue culture infectious dose (TCID50).

[4] = test system: DENV2 prME/ZIKV SRIPs; experiment: E protein-mediated attachment assay with chimeric DENV2 prME/ZIKV SRIPs on Vero E6 cells; assay type: cell-based, Dengue virus type 2; conditions: Vero C1008, 1 h, read-out: IC50 of E-mediated attachment against DENV2 prME/ZIKV SRIPs
Experimental: Figure 7 Attachment inhibition of chimeric DENV2 prM-E/ZIKV and wild-type ZIKV SRIPs by active GL derivatives 3 and 11. Vero E6 cells were pre-cooled and incubated with fresh-prepared mixtures of DENV2 prM-E/ZIKV or wild-type ZIKV SRIPs, with active GL derivatives 3 (A), and 11 (B) at 4 °C for 1 h, respectively. After the removal of the mixtures, the cells were kept at 37 °C for 18 h and then an immunofluorescent assay with anti-ZIKV NS1 antibodies plus DAPI staining was performed. Finally, the inhibition percentage of SRIP attachment infectivity was measured as follows: 1-(percentage of ZIKV NS1 positivity in treated cells/ percentage of ZIKV NS1 positivity in mock-treated cells). * p < 0.05; *** p < 0.001 compared with untreated, infected cells.
(§1) DNA-launched cytomegaloviruses (CMV) promoter-driven JEV and ZIKV replicons had been constructed, as described in our prior reports. […] After the removal of the mixture (the compound and SRIP), the cells were incubated at 37 °C for 18 h, and then were analyzed by immunofluorescent assay with anti-JEV NS3 and anti-ZIKV NS5 antibodies, respectively, plus DAPI staining for determining the residual infectivity of wild-type and chimeric SRIPs, as described above.

[5] = test system: wild-type JEV SRIPs; experiment: Attachment assay with wild-type JEV SRIPs on Vero E6 cells; assay type: cell-based, Japanese encephalitis virus; conditions: 4 °C for 1 h
Experimental: Figure 6 Attachment inhibition of chimeric DENV2 CprM-E/JEV and wild-type JEV SRIPs by active GL conjugates. Vero E6 cells were pre-cooled and incubated with freshly prepared mixtures of DENV2 CprM-E/JEV or wild-type JEV SRIPs, with active GL derivatives 3 (A), 6 (B), 11 (C), and 21 (D) at 4 °C for 1 h, respectively. After the removal of the mixtures, the cells were kept at 37 °C for 18 h and then an immunofluorescent assay with anti-JEV NS5 antibodies plus DAPI staining was performed. Finally, the inhibition percentage of SRIP attachment infectivity was measured as follows: 1-(percentage of JEV NS5 positivity in treated cells/percentage of JEV NS5 positivity in mock-treated cells). * p < 0.05; *** p < 0.001 compared with untreated, infected cells.
as §1

[6] = Dengue virus, DENV2, Vero C1008, 96 h, read-out: IC50 on the viral yield of DENV2, Vero E6 cells, TCID50 assay, 96 h

COC(=O)[C@H](NC(=O)[C@H]1O[C@@H](O[C@H]2[C@H](OC3CC[C@@]4(C)C(CC[C@]5(C)C4C(=O)C=C4C6C[C@@](C)(C(=O)O)CC[C@]6(C)CC[C@]45C)C3(C)C)O[C@H](C(=O)N[C@@H](C(=O)OC)C(C)C)[C@@H](O)[C@@H]2O)[C@H](O)[C@@H](O)[C@@H]1O)C(C)C (stereo partly drawn) [Compound 3, 3-O-{2-O-[N-(β-D-Glucopyranosyluronoyl)-D-valinemethyl ester]-N-(β-D-glucopyranosyluronoyl)-D-valinemethyl ester}-(3β, 20β)-11-oxo-30-noroleane-12-ene-30-oic Acid]
inhibition at 10 µM [1]: 90.7%
CC50 at 96 h [2]: > 100000 nM
IC50 [3, 6]: 500 nM
IC50 [4]: 2820 nM
Attachment of wild-type JEV SRIPs onto Vero E6 cells [5]: did not impede

CCOC(=O)[C@H](Cc1ccccc1)NC(=O)[C@H]1O[C@@H](O[C@H]2[C@H](OC3CC[C@@]4(C)C(CC[C@]5(C)C4C(=O)C=C4C6C[C@@](C)(C(=O)O)CC[C@]6(C)CC[C@]45C)C3(C)C)O[C@H](C(=O)N[C@@H](Cc3ccccc3)C(=O)OCC)[C@@H](O)[C@@H]2O)[C@H](O)[C@@H](O)[C@@H]1O (stereo partly drawn) [Compound 11, 3-O-{2-O-[N-(β-D-Glucopyranosyluronoyl)-L-phenylalanineethyl ester]-N-(β-D-Glucopyranosyluronoyl)-L-phenylalanineethyl ester}-(3β, 20β)-11-oxo-30-noroleane-12-ene-30-oic Acid]
IC50 ([1]; DENV2, Vero C1008, read-out: Inhibition of DENV2 Infectivity (IC50, μM), Vero E6 cells): 0.17 to 0.5 µM
inhibition at 10 µM [1]: 91.3%
CC50 at 96 h [2]: > 100000 nM
IC50 [3, 6]: 200 nM
IC50 ([3]; read-out: IC50 on the viral yield of DENV2, Vero E6 cells, TCID50 assay, 96 h): 170 nM
IC50 [4]: 1260 nM
Attachment of wild-type JEV SRIPs onto Vero E6 cells [5]: did not impede
